In patent US20100221197A1, “ANTIMICROBIAL AGENT AND EXTERNAL PREPARATION FOR SKIN CONTAINING THE SAME” (TAIYO CORPORATION, priority 2007, published 2010):
Converted amounts (≈) assume the structure as drawn. Like-named read-outs stand apart in the source and are kept apart here.

Tests used:
[1] = tested on: S. epidermidis(JCM2414); test: Antimicrobial test, growth inhibition minimum concentration; assay type: cell-based, Staphylococcus epidemidis; conditions: for minimum inhibitory concentration: Table 2
Protocol: (§1) 0.5 mL of a previously sterilized medium (brand name: Brain Heart Infusion Liquid Medium supplied by Nihon Pharmaceutical Co., Ltd.) was added into a 96-well deep type microplate, and 0.5 mL of ricinoleic acid monoglyceride or diglycerine ricinoleic acid monoester of the present invention (synthesized in “1. Synthesis Example of ricinoleic acid monoglyceride” and “2. Synthesis Example of diglycerine ricinoleic acid monoester,” respectively) was added thereto and serially prepared so that the final concentration in the medium was 3 ppm, 6 ppm, 12 ppm, 25 ppm, 50 ppm, 100 ppm, 200 ppm and 400 ppm. 0.1 mL of each cultured bacterial medium of Corynebacterium xerosis (JCM 1971) or Staphylococcus aureus (JCM 2151) at approximately 1×10^8CFU/mL was added to this sample solution, stirred, and then cultured at 37° C. under an aerobic condition for 24 hours. The antimicrobial effect was visually determined, and compared with test plots in which the microorganism had not been added. The test plot in which no turbidity due to growth of the microorganism was observed was determined as the test plot having the antimicrobial effect, and the lowest concentration required for inhibiting the growth of the microorganism (hereinafter referred to as a “growth inhibition minimum concentration”) was measured. As a Comparative Example, the growth inhibition minimum concentration of 4-isopropyl-3-methylphenol known as the antimicrobial agent having a broad antimicrobial spectrum was measured in the same way as in the above. The growth inhibition minimum concentrations of ricinoleic acid monoglyceride and diglycerine ricinoleic acid monoester of the present invention (synthesized in “1. Synthesis Example of ricinoleic acid monoglyceride” and “2. Synthesis Example of diglycerine ricinoleic acid monoester,” respectively) for the 9 indicator bacterial species shown in Table 2 were measured in the same way as in “3. Antimicrobial test” described above.

[2] = tested on: S. mutans(JCM5175); test: as above; assay type: cell-based, Streptococcus mutans; conditions: for minimum inhibitory concentration: Table 2
Protocol: as §1

[3] = tested on: E. coli(JCM1649); test: as above; assay type: cell-based, Escherichia coli; conditions: for antimicrobial activity against Escherichia coli: statement in words from Table 2
Protocol: as §1

[4] = tested on: B. cereus(JCM2152); test: as above; assay type: cell-based, Bacillus cereus; conditions: for minimum inhibitory concentration: Table 2
Protocol: as §1

[5] = tested on: L. monocytogenes(JCM7671); test: as above; assay type: cell-based, Listeria monocytogenes; conditions: for minimum inhibitory concentration: Table 2
Protocol: as §1

[6] = tested on: Propionibacterium acnes (JCM 6425); test: Microbicidal test for Propionibacterium acnes; assay type: cell-based; conditions: FIG. 2; for retention time for reducing the number of bacteria to 1/100 or less: 200 ppm sample in 0.2 M phosphate buffer (pH7.0), anaerobic
Protocol: Ricinoleic acid monoglyceride synthesized in “1. Synthesis Example of ricinoleic acid monoglyceride” was added to a 0.2 M phosphate buffer (pH7.0) to prepare a 200 ppm sample. 0.1 mL of Propionibacterium acnes (JCM 6425) at approximately 1×10^8CFU/mL was added to 5 mL of the sample. While being kept under the anaerobic condition, the bacterial sample was taken at 0, 5, 10, 30, 60 and 120 minutes after the addition, and the number of survival bacteria in the sample was counted at each retention time. Specifically, using a GAM agar medium, the sample was serially diluted, cultured using the flat plate smear method at 37° C. under the anaerobic condition for 4 days, and then the number of bacteria was counted. As the comparative control, 4-isopropyl-3-methylphenol was simultaneously evaluated in the same way as in the above.

[7] = tested on: Staphylococcus aureus (JCM 2151); test: Microbicidal test for Staphylococcus aureus; assay type: cell-based; conditions: FIG. 1; for retention time for reducing the number of bacteria to 1/1000 or less: 200 ppm sample in 0.2 M phosphate buffer (pH7.0), aerobic
Protocol: Ricinoleic acid monoglyceride synthesized in “1. Synthesis Example of ricinoleic acid monoglyceride” was added to a 0.2 M phosphate buffer (pH7.0) to prepare a 200 ppm sample. 0.1 mL of Staphylococcus aureus (JCM 2151) at approximately 1×10^8CFU/mL was added to 5 mL of the sample. While being kept under the aerobic condition, the bacterial sample was taken at 0, 5, 10, 30, 60 and 120 minutes after the addition, and the number of survival bacteria in the sample was counted at each retention time. Specifically, using a Brain Heart Infusion agar medium, the sample was serially diluted, cultured using a flat plate smear method at 37° C. for 48 hours, and then the number of bacteria was counted. As a comparative control, 4-isopropyl-3-methylphenol was simultaneously evaluated in the same way as in the above.

[8] = tested on: Corynebacterium xerosis (JCM 1971); test: Antimicrobial test, growth inhibition minimum concentration; assay type: cell-based; conditions: C. xerosis(JCM1971)
Protocol: as §1

[9] = tested on: Staphylococcus aureus (JCM 2151); test: as above; assay type: cell-based; conditions: S. aureus(JCM2151); for MIC: Staphylococcus aureus, read-out: minimum inhibitory concentration
Protocol: as §1

[10] = tested on: Propionibacterium acnes (JCM 6425); test: Antimicrobial test, growth inhibition minimum concentration (anaerobic); assay type: cell-based; conditions: Table 1, P. acnes(JCM6425), 37° C., 48 hours
Protocol: 0.5 mL of the previously sterilized medium (brand name: Brain Heart Infusion Liquid Medium supplied by Nihon Pharmaceutical Co., Ltd.) was added to a 96-well deep type microplate, and 0.5 mL of ricinoleic acid monoglyceride or diglycerine ricinoleic acid monoester of the present invention (synthesized in “1. Synthesis Example of ricinoleic acid monoglyceride” and “2. Synthesis Example of diglycerine ricinoleic acid monoester,” respectively) was added thereto and serially prepared so that the final concentration in the medium was 3 ppm, 6 ppm, 12 ppm, 25 ppm, 50 ppm, 100 ppm, 200 ppm and 400 ppm. 0.1 mL of a cultured bacterial medium of Propionibacterium acnes (JCM 6425) at approximately 1×10^8CFU/mL was added to this sample solution, and cultured at 37° C. under an anaerobic condition using a deoxidizer for 48 hours. The antimicrobial effect was visually determined, and the growth inhibition minimum concentration was measured. As a Comparative Example, the growth inhibition minimum concentration of 4-isopropyl-3-methylphenol known as the antimicrobial agent having a broad antimicrobial spectrum was measured in the same way as in the above.

[11] = tested on: B. subtile(JCM2151); test: Antimicrobial test, growth inhibition minimum concentration; assay type: cell-based, Bacillus subtilis; conditions: Table 2
Protocol: as §1

[12] = tested on: P. gingivalis(JCM8525); test: as above; assay type: cell-based, Porphyromonas gingivalis; conditions: Table 2
Protocol: as §1

[13] = Compounding property in external preparations for skin; assay type: physicochemical
Protocol: Hyaluronic acid, ethanol, glycerine and ricinoleic acid monoglyceride were mixed, and then purified water was added to obtain a skin lotion.
Squalane, jojoba oil, bees wax and sorbitan sesquioleate were mixed, heated to 70° C. and dissolved (this was a mixture A). On the other hand, xanthan gum, 1,3-butylene glycol, ethanol and ricinoleic acid monoglyceride were mixed at room temperature (this was a mixture B). Subsequently, the mixture A and the mixture B were mixed, heated to 60° C., and added little by little to the purified water in which the N-palm oil fatty acid acyl L-arginine ethyl-DL-pyrrolidone carboxylate salt had been added, and vigorously stirring to emulsify to obtain a milky lotion.
Squalane, stearic acid, bees wax, stearyl alcohol and ricinoleic acid monoglyceride were mixed, heated to 70° C. and dissolved. The N-palm oil fatty acid acyl L-arginine ethyl-DL-pyrrolidone carboxylate salt and the purified water were added little by little to these heated and dissolved oil-based ingredients, and these were stirred well to obtain a cream.

[14] = Table 1, 37° C., aerobic, 24 hours

| Structure (SMILES) | minimum inhibitory concentration [1] [ppm] | minimum inhibitory concentration [2] [ppm] | minimum inhibitory concentration ([3]; Table 2, E. coli(JCM1649)) [ppm] | minimum inhibitory concentration [4] [ppm] | minimum inhibitory concentration [5] [ppm] | minimum inhibitory concentration [11] [ppm] | minimum inhibitory concentration ([8]; Table 2) [ppm] | minimum inhibitory concentration ([9]; Table 2) [ppm] | minimum inhibitory concentration [12] [ppm] | other results |
| --- | --- | --- | --- | --- | --- | --- | --- | --- | --- | --- |
| Cc1cc(O)ccc1C(C)C [4-isopropyl-3-methyl phenol, 4-isopropyl-3-methylphenol] | – | – | – | – | – | – | – | – | – | MIC ([1]; Staphylococcus epidermidis, Table 2, read-out: minimum inhibitory concentration): 200 µg/mL (≈ 1330 µM); MIC ([2]; Streptococcus mutans, Table 2, read-out: minimum inhibitory concentration): 200 µg/mL (≈ 1330 µM); MIC ([3]; Escherichia coli, Table 2, E. coli(JCM1649), read-out: minimum inhibitory concentration): 400 µg/mL (≈ 2660 µM); MIC ([4]; Bacillus cereus, Table 2, read-out: minimum inhibitory concentration): 200 µg/mL (≈ 1330 µM); MIC ([5]; Listeria monocytogenes, Table 2, read-out: minimum inhibitory concentration): 200 µg/mL (≈ 1330 µM); retention time for reducing the number of bacteria to 1/100 or less [6]: 10 min; microbicidal action for 5 minutes ([6]; 200 ppm, retention time 5 minutes): weak; retention time for reducing the number of bacteria to 1/1000 or less [7]: 30 min; microbicidal action for 10 minutes ([7]; 200 ppm, retention time 10 minutes): weak; MIC ([8]; Corynebacterium xerosis, Table 1, 37° C., aerobic, 24 hours, read-out: minimum inhibitory concentration): 200 µg/mL (≈ 1330 µM); MIC [9, 14]: 200 µg/mL (≈ 1330 µM); MIC ([9]; Table 2): 200 µg/mL (≈ 1330 µM); MIC ([10]; Cutibacterium acnes, read-out: minimum inhibitory concentration): 200 µg/mL (≈ 1330 µM) |
| CCCCCCCCCCCC(=O)OCC(O)COCC(O)CO (stereo not drawn) [diglycerin lauric acid monoester] | 100 | 50 | >400 | 100 | 200 | 100 | 200 | 50 | – | – |
| CCCCCCCCCCCCCC(=O)OCC(O)COCC(O)CO (stereo not drawn) [diglycerin myristic acid monoester] | >400 | 50 | >400 | – | – | 25 | 100 | 50 | – | – |
| CCCCCCC(O)CC=CCCCCCCCC(=O)OCC(O)COCC(O)CO (stereo not drawn) [diglycerin ricinoleic acid monoester, diglycerine ricinoleic acid monoester] | 50 | 50 | >400 | 50 | 50 | 50 | 25 | 50 | – | antimicrobial activity against Escherichia coli [3]: did not exhibit antimicrobial activity; minimum inhibitory concentration [8, 14]: 50 ppm; minimum inhibitory concentration [9, 14]: 50 ppm; minimum inhibitory concentration [10]: 100 ppm |
| CCCCCCCCCCCC(=O)OCC(O)CO (stereo not drawn) [lauric acid monoglyceride] | 25 | 25 | >400 | 25 | 25 | 25 | 100 | 50 | 13 | – |
| CCCCCCCCCCCCCC(=O)OCC(O)CO (stereo not drawn) [myristic acid monoglyceride] | >400 | 100 | >400 | 400 | 200 | >400 | 400 | 400 | 50 | – |
| CCCCCC[C@@H](O)C/C=C\CCCCCCCC(=O)OCC(O)CO (stereo partly drawn) [ricinoleic acid monoglyceride] | 25 | 25 | >400 | 12.5 | 25 | 25 | 25 | 25 | 6 | antimicrobial activity against Escherichia coli [3]: did not exhibit antimicrobial activity; retention time for reducing the number of bacteria to 1/100 or less [6]: ≤ 5 min; compounding property: mixing with the other ingredients ([13]; cream, 2.0% by weight): mixed very well; blending property: mixing with the other ingredients ([13]; milky lotion, 1.0% by weight): immediately mixed; compounding property: mixing with the other ingredients ([13]; skin lotion, 0.5% by weight): easily mixed; retention time for reducing the number of bacteria to 1/1000 or less [7]: ≤ 10 min; minimum inhibitory concentration [8, 14]: 25 ppm; minimum inhibitory concentration [9, 14]: 25 ppm; minimum inhibitory concentration [10]: 50 ppm |
